According to patent US20250042904A1, “COMPOUNDS USED AS SRC INHIBITORS” (WIGEN BIOMEDICINE TECHNOLOGY (SHANGHAI) CO., LTD., priority 2021, published 2025):

Assays:
[1] = target: recombinant protein Src (Homo sapiens (Human), UniProt P12931); assay: In vitro assay for inhibiting Src kinase activity (biotin-labeled TK substrate, Sa-XL 665, Cryptate-labeled antibody); type: biochemical; conditions: read-out: IC50, inhibitory activity against recombinant protein Src
Method: After the compound serially diluted with DMSO and a Src recombinant protein were incubated at room temperature for 10 min, the reaction was initiated by the addition of a biotin-labeled TK substrate and ATP. After the mixture was left to stand at room temperature for 40 min Sa-XL 665 and a Cryptate-labeled antibody were added. The fluorescence values at 615 nm and 665 nm were measured, and the ratio of 665 nm to 615 nm was calculated. The inhibition percentages and IC50 of the compounds were calculated compared to the DMSO group.

[2] = tested on: PC3 cells; assay: In vitro anti-proliferative activity against PC3 cells (agarose, 7 days); type: cell-based; conditions: Homo sapiens, PC-3, 168 h, 7 days of incubation
Method: PC3 cells were mixed with 0.4% agarose at 1200 cells/well, and the mixture was seeded on 0.6% agarose. The compound serially diluted was added, and the cell number was measured after 7 days of incubation. The inhibition percentages and IC50 of the compounds were calculated compared to the DMSO group.

[3] = Stability experiment in aqueous hydrochloric acid solution pH 2 (HPLC); type: physicochemical; conditions: for Initial purity: before acid treatment (baseline); for Purity after stirring in an aqueous hydrochloric acid solution with a pH of 2 for 0.5 h: pH 2, room temperature
Method: 5 mg each of compound 59 and compound A was dissolved in an aqueous hydrochloric acid solution (5 mL) with a pH of 2. The mixture was stirred at room temperature. Samples were taken after 0.5 h for HPLC assay using the following assay conditions. The HPLC assay results are shown in Table 7. • Instrument: Agilent 1260 infinity 2 • Column: Xtimate C18 4.6*150 mm,3 um • Temperature:25° C. • Wave length:210 nm/254 nm • phase A: H2O (0.1% TFA) • phase B: MECN (0.1% TFA) • Gradient: […]

[4] = In vivo pharmacokinetic experiment in CD-1 female mice; conditions: mouse, plasma, CD-1 mice; for Vd: read-out: Vdss
Method: CD-1 female mice aged 7 to 10 weeks were intravenously administered and orally administered at a dose of 2 mg/kg and 10 mg/kg, respectively. The mice were fasted for at least 12 h before the administration and given food 4 h after the administration, and they were given ad libitum access to water during the experiment. On the day of the experiment, animals in the intravenous group were administered the corresponding compound by single injection via the tail vein at an administration volume of 10 mL/kg. Animals in the oral group were administered the corresponding compound by single intragastric injection at an administration volume of 10 mL/kg. The animals were weighed before administration, and the administration volume was calculated according to the body weight. The sample collection time was 0.083 h (injection group), 0.167 h, 0.5 h, 1 h, 2 h, 4 h, 8 h, and 24 h. About 200 μL of whole blood was collected through the submaxillary venous plexus at each time point and used to prepare plasma for concentration determination by high-performance liquid chromatography-tandem mass spectrometry (LC-MS/MS). All animals were euthanized with CO2 anesthesia after the PK samples were collected at the last time point. The plasma concentrations were processed using a non-compartmental model of Phoenix WinNonlin™ version 8.3 (Certara) pharmacokinetic software, and the pharmacokinetic parameters were calculated using a linear-log trapezoidal method.

[5] = tested on: PC3 subcutaneous xenograft tumor; assay: In vivo pharmacodynamic study, mouse PC3 subcutaneous xenograft tumor model
Method: Each nude mouse was grafted subcutaneously with 10×10^6 PC3 cells. When the tumor grew to 100-200 mm^3, the compound was administered orally once a day, and the tumor volume was measured twice a week and at the end of treatment. Tumor growth inhibition rate of the compound was calculated according to the following equation: tumor growth inhibition (TGI)=1−(tumor volume on day 17 in treatment group−tumor volume on day 1 in treatment group)/(tumor volume on day 17 in vehicle control group−tumor volume on day 1 in […]).

Sequence of recombinant protein Src (P12931 whole entry, looked up): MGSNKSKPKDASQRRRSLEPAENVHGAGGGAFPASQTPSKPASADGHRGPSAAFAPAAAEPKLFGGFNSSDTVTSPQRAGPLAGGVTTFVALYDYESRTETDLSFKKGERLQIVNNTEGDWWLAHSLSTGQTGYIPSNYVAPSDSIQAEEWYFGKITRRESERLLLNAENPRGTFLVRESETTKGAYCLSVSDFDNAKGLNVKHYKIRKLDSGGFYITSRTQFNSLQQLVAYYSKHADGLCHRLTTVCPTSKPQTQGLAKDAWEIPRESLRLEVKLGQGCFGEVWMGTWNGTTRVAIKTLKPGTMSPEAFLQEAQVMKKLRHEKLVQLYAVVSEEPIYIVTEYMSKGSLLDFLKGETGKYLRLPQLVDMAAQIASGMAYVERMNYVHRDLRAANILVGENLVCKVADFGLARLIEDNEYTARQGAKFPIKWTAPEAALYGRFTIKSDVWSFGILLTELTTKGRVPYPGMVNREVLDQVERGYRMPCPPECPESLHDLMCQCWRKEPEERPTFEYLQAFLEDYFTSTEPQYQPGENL

Row | Structure (SMILES) | IC50 [1] [nM] | other results
1 | CN(C)C1CCN(CCn2nc(-c3ncc(NC(=O)OC(C)(C)C)c4c3OCO4)c3c(N)ncnc32)CC1 [Compound 20] | 10 to 50 | 
2 | CN(C)CC1CCN(CCn2nc(-c3ccc(NC(=O)OC(C)(C)C)c4c3OCO4)c3c(N)ncnc32)CC1 [Compound 43] | ≤ 10 | 
3 | CN(C)C1CCN(CCn2nc(-c3ccc(NC(=O)OC4(C)CCC4)c4c3OCO4)c3c(N)ncnc32)CC1 [Compound 5] | ≤ 10 | IC50 [2]: 4.2 nM
4 | COc1cc(-c2nn(CCN3CCC(N(C)C)CC3)c3ncnc(N)c23)ccc1NC(=O)OC1CC1 [Compound 63] | ≤ 10 | 
5 | CC(C)(C)OC(=O)Nc1ccc(-c2nn(CCN3CCC(N4CCOCC4)CC3)c3ncnc(N)c23)c2c1OCO2 [Compound 57] | ≤ 10 | 
6 | CN(C)C1CCN(CCn2nc(-c3c(F)cc(NC(=O)OC(C)(C)C)c4c3OCO4)c3c(N)ncnc32)CC1 [Compound 18] | 10 to 50 | 
7 | CN(C)C1CCN(CCn2nc(-c3ccc(NC(=O)OC(C)(C)C)c4c3OC(F)(F)O4)c3c(N)ncnc32)CC1 [Compound 51] | ≤ 10 | 
8 | CN1CCN(C2CCN(CCn3nc(-c4ccc(NC(=O)OC(C)(C)C)c5c4OCO5)c4c(N)ncnc43)CC2)CC1 [Compound 47] | ≤ 10 | 
9 | CN(C)C1CCN(CCn2nc(-c3ccc(NC(=O)OC45CC(C4)C5)c4c3OCO4)c3c(N)ncnc32)CC1 [Compound 7] | ≤ 10 | 
10 | CN(C)[C@H]1CCN(CCn2nc(-c3ccc(NC(=O)OC(C)(C)C)c4c3OCO4)c3c(N)ncnc32)C1 [Compound 38] | ≤ 10 | 
11 | COCCN1CCN(CCn2nc(-c3ccc(NC(=O)OC(C)(C)C)c4c3OCO4)c3c(N)ncnc32)CC1 [Compound 45] | ≤ 10 | 
12 | CN(C)C1CCN(CCn2nc(-c3ccc(NC(=O)OC4CCC4)c4c3OCO4)c3c(N)ncnc32)CC1 [Compound 4] | ≤ 10 | 
13 | COc1cc(-c2nn(CCN3CCC(N(C)C)CC3)c3ncnc(N)c23)ccc1NC(=O)OC1CCC1 [Compound 60] | ≤ 10 | 
14 | CN(C)C1CCN(CCn2nc(-c3ccc(NC(=O)OC4CCCC4)c4c3OCO4)c3c(N)ncnc32)CC1 [Compound 13] | 10 to 50 | 
15 | CN(C)C1CCN(CCCn2nc(-c3ccc(NC(=O)OC(C)(C)C)c4c3OCO4)c3c(N)ncnc32)CC1 [Compound 52] | ≤ 10 | 
16 | CN(C)C1CCN(CCn2nc(-c3ccc(NC(=O)OC4COC4)c4c3OCO4)c3c(N)ncnc32)CC1 [Compound 14] | ≤ 10 | 
17 | COc1cc(-c2nn(CCN3CCC(N(C)C4CC4)CC3)c3ncnc(N)c23)ccc1NC(=O)OC1(C)CC1 [Compound 69] | ≤ 10 | IC50 [2]: 12.5 nM
18 | CN(C)C1CCN(CCn2nc(-c3cnc(NC(=O)OC(C)(C)C)c4c3OCO4)c3c(N)ncnc32)CC1 [Compound 19] | 10 to 50 | 
19 | COc1cc(-c2nn(CCN3CCC(N(C)C)CC3)c3ncnc(N)c23)ccc1NC(=O)OC(C)(C)C [Compound A, reference compound] |  | Initial purity [3]: 96.18%; Purity after stirring in an aqueous hydrochloric acid solution with a pH of 2 for 0.5 h [3]: Complete degradation; AUC(0-t) ([4]; oral administration 10 mg/kg): 1440 ng·h/mL; Cmax ([4]; oral administration 10 mg/kg): 211 ng/mL; bioavailability ([4]; oral administration 10 mg/kg): 42.9%; half-life ([4]; oral administration 10 mg/kg): 5.7 h; AUC(0-t) ([4]; iv, injection 2 mg/kg): 682 ng·h/mL; clearance ([4]; iv, injection 2 mg/kg): 775 mL/min/kg; half-life ([4]; iv, injection 2 mg/kg): 6.4 h; Vd ([4]; iv, injection 2 mg/kg): 15.2 L/kg
20 | CC(C)(C)OC(=O)Nc1ccc(-c2nn(CCN3CCC(N4CCCC4)CC3)c3ncnc(N)c23)c2c1OCO2 [Compound 37] | ≤ 10 | IC50 [2]: 11.7 nM
21 | COc1cc(-c2nn(CCN3CCC(N(C)C)CC3)c3ncnc(N)c23)ccc1NC(=O)OC1(C)CCC1 [Compound 61] | ≤ 10 | IC50 [2]: 5.6 nM
22 | CN1CCC2(CC1)CCN(CCn1nc(-c3ccc(NC(=O)OC(C)(C)C)c4c3OCO4)c3c(N)ncnc31)CC2 [Compound 49] | ≤ 10 | 
23 | CN(C)CCN(C)CCn1nc(-c2ccc(NC(=O)OC(C)(C)C)c3c2OCO3)c2c(N)ncnc21 [Compound 50] | ≤ 10 | 

Row | Structure (SMILES) | IC50 [1] [nM] | other results
24 | CCOC(=O)Nc1ccc(-c2nn(CCN3CCC(N(C)C)CC3)c3ncnc(N)c23)c2c1OCO2 [Compound 9] | 10 to 50 | 
25 | COc1cc(-c2nn(CCN3CCC(N(C)C)CC3)c3ncnc(N)c23)ccc1NC(=O)OC1CC(F)(F)C1 [Compound 70] | ≤ 10 | 
26 | CN1CC(OC(=O)Nc2ccc(-c3nn(CCN4CCC(N5CCC5)CC4)c4ncnc(N)c34)c3c2OCO3)C1 [Compound 48] | ≤ 10 | 
27 | CN(C)CCN1CCN(CCn2nc(-c3ccc(NC(=O)OC(C)(C)C)c4c3OCO4)c3c(N)ncnc32)CC1 [Compound 42] | ≤ 10 | 
28 | COc1cc(-c2nn(CCN3CCC(N(C)C4CC4)CC3)c3ncnc(N)c23)ccc1NC(=O)OC(C)(C)C [Compound 62] | ≤ 10 | IC50 [2]: 10.1 nM
29 | COc1cc(-c2nn(CCN3CCC(N(C)C4CC4)CC3)c3ncnc(N)c23)ccc1NC(=O)OC1(C)CCC1 [Compound 68] | ≤ 10 | IC50 [2]: 15.2 nM
30 | COc1cc(-c2nn(CCN3CCC(N(C)C)CC3)c3ncnc(N)c23)ccc1NC(=O)OC12CC(C1)C2 [Compound 65] | ≤ 10 | 
31 | CC(C)(C)OC(=O)Nc1ccc(-c2nn(CCN3CCN(CCO)CC3)c3ncnc(N)c23)c2c1OCO2 [Compound 41] | ≤ 10 | 
32 | CN(C1CC1)C1CCN(CCn2nc(-c3ccc(NC(=O)OC(C)(C)C)c4c3OCO4)c3c(N)ncnc32)CC1 [Compound 36] | ≤ 10 | 
33 | COc1cc(-c2nn(CCN3CCC(N(C)C)CC3)c3ncnc(N)c23)ccc1NC(=O)OC1C2CC1C2 (stereo not shown) [Compound 64] | ≤ 10 | 
34 | CN(C)C1CCN(CCn2nc(-c3ccc(NC(=O)OC4CC4)c4c3OCO4)c3c(N)ncnc32)CC1 [Compound 2] | ≤ 10 | 
35 | CN(C)CCC1CCN(CCn2nc(-c3ccc(NC(=O)OC(C)(C)C)c4c3OCO4)c3c(N)ncnc32)CC1 [Compound 44] | ≤ 10 | 
36 | CC(C)(C)OC(=O)Nc1ccc(-c2nn(CCN3CCC(C#N)CC3)c3ncnc(N)c23)c2c1OCO2 [Compound 46] | ≤ 10 | 
37 | CN(C)C1CCN(CCn2nc(-c3cc(F)c(NC(=O)OC(C)(C)C)c4c3OCO4)c3c(N)ncnc32)CC1 [Compound 17] | 10 to 50 | 
38 | COC1CCN(CCn2nc(-c3ccc(NC(=O)OC(C)(C)C)c4c3OCO4)c3c(N)ncnc32)CC1 [Compound 58] | ≤ 10 | 
39 | CN(C)C1CCN(CCn2nc(-c3ccc(NC(=O)OC4CC(F)(F)C4)c4c3OCO4)c3c(N)ncnc32)CC1 [Compound 12] | ≤ 10 | 
40 | COc1cc(-c2nn(CCN3CCC(N(C)C)CC3)c3ncnc(N)c23)ccc1NC(=O)OC1(C)CC1 [Compound 59] | ≤ 10 | Initial purity [3]: 96.35%; Purity after stirring in an aqueous hydrochloric acid solution with a pH of 2 for 0.5 h [3]: 96.16%; IC50 [2]: 5.3 nM; TGI (tumor growth inhibition) ([5]; day 17, oral once a day, 50 mg/kg (day 1-day 7), 80 mg/kg (day 8-day 18)): 53%; Tumor volume on day 17 of treatment ([5]; nude mice, oral once a day, 50 mg/kg (day 1-day 7), 80 mg/kg (day 8-day 18)): 318 mm^3; Tumor volume on day 1 of treatment ([5]; nude mice, oral once a day, baseline day 1): 120 mm^3; AUC(0-t) ([4]; oral administration 10 mg/kg): 491 ng·h/mL; Cmax ([4]; oral administration 10 mg/kg): 88.9 ng/mL; bioavailability ([4]; oral administration 10 mg/kg): 32.1%; half-life ([4]; oral administration 10 mg/kg): 5.3 h; AUC(0-t) ([4]; iv, injection 2 mg/kg): 300 ng·h/mL; clearance ([4]; iv, injection 2 mg/kg): 1770 mL/min/kg; half-life ([4]; iv, injection 2 mg/kg): 5.9 h; Vd ([4]; iv, injection 2 mg/kg): 35.6 L/kg
41 | CN(C)[C@@H]1CCN(CCn2nc(-c3ccc(NC(=O)OC(C)(C)C)c4c3OCO4)c3c(N)ncnc32)C1 [Compound 39] | ≤ 10 | 
42 | CC(C)OC(=O)Nc1ccc(-c2nn(CCN3CCC(N(C)C)CC3)c3ncnc(N)c23)c2c1OCO2 [Compound 8] | 10 to 50 | 
43 | CN(C)C1CCN(CCn2nc(-c3ccc(NC(=O)OC(C)(C)C)c4c3OCO4)c3c(N)ncnc32)CC1 [Compound 1] | ≤ 10 | IC50 [2]: 3.5 nM
44 | CN(C)C1CCN(CCn2nc(-c3ccc(NC(=O)OC4(C)CC4)c4c3OCO4)c3c(N)ncnc32)CC1 [Compound 3] | ≤ 10 | IC50 [2]: 4.8 nM
45 | CN(C)C1CCN(CCn2nc(-c3ccc(NC(=O)OC4C5CC4C5)c4c3OCO4)c3c(N)ncnc32)CC1 (stereo not shown) [Compound 6] | ≤ 10 | 
